Test results: patent US8178506B2, “Oligomeric compounds and compositions for use in modulation of small non-coding RNAs” (Regulus Therapeutics Inc., priority 2003, dated 2012)
In the oligonucleotide strings, read from the 5' end, every base follows the letter of its sugar. An asterisk marks phosphorothioate; unmarked linkages are phosphodiester. Other units and linkages are bracketed, terminal groups are in braces. A string of capitals states the bases alone. e = 2'-O-(2-methoxyethyl) (MOE); [5mC] = 5-methylcytosine

Experiments:
Assay type in all cases: cell-based, human
Conditions in all cases: differentiating adipocytes transfected with oligomeric compound; Table 75
Glut4 = Glut4 mRNA expression in adipocytes (real-time PCR)
Experimental: (§1) Expression of the four hallmark genes, HSL, aP2, Glut4, and PPARγ, is also measured in adipocytes transfected with oligomeric compounds of the invention. Cells are lysed on day nine post-transfection and total RNA is harvested. The amount of total RNA in each sample is determined using a Ribogreen Assay (Invitrogen Life Technologies, Carlsbad, Calif.).
(§2) For assaying adipocyte differentiation, expression of the four hallmark genes, HSL, aP2, Glut4, and PPARγ, as well as triglyceride (TG) accumulation and leptin secretion were measured in adipocytes transfected with the uniform 2′-MOE phosphorothioate (PS) oligomeric compounds previously described. Cells are lysed on day nine post-transfection, in a guanadinium-containing buffer and total RNA is harvested. Real-time PCR is performed (Applied Biosystems, Prism 7700) on the total RNA using the following primer/probe sets for the adipocyte differentiation hallmark genes: (aP2): forward 5′-GGTGGTGGAATGCGTCATG-3′ (SEQ ID NO: 746), reverse 5′-[…]-3′ (SEQ ID NO: 747), probe 5′-FAM-[…]-TAMRA-3′ (SEQ ID NO: 748); (Glut4): forward 5′-GGCCTCCGCAGGTTCTG-3′ (SEQ ID NO: 749), reverse 5′-[…]-3′ (SEQ ID NO: 750), probe 5′-FAM-[…]-TAMRA-3′ (SEQ ID NO: 751); (HSL): forward 5′-ACCTGCGCACAATGACACA-3′ (SEQ ID NO: 752), reverse 5′-[…]-3′ (SEQ ID NO: 753), probe 5′-FAM-[…]-TAMRA-3′ (SEQ ID NO: 754); (PPAR-γ): forward 5′-[…]-3′ (SEQ ID NO: 755), reverse 5′-[…]-3′ (SEQ ID NO: 756), probe 5′-FAM-[…]-TAMRA-3′ (SEQ ID NO: 757). The amount of total RNA in each sample is determined using a Ribogreen Assay (Molecular Probes, Eugene, Oreg.), and expression levels of the adipocyte differentiation hallmark genes were normalized to total RNA.

adipocytes = experiment: Triglyceride accumulation assay in adipocytes
Experimental: The triglyceride accumulation assay measures the synthesis of triglyceride by adipocytes. Triglyceride accumulation is measured using the Infinity™ Triglyceride reagent kit (Sigma-Aldrich, St. Louis, Mo.). On day nine post-transfection, cells are washed and lysed at room temperature, and the triglyceride assay reagent is added. Triglyceride accumulation is measured based on the amount of glycerol liberated from triglycerides by the enzyme lipoprotein lipase. Liberated glycerol is phosphorylated by glycerol kinase, and hydrogen peroxide is generated during the oxidation of glycerol-1-phosphate to dihydroxyacetone phosphate by glycerol phosphate oxidase. Horseradish peroxidase (HRP) uses H2O2 to oxidize 4-aminoantipyrine and 3,5 dichloro-2-hydroxybenzene sulfonate to produce a red-colored dye. Dye absorbance, which is proportional to the concentration of glycerol, is measured at 515 nm using an UV spectrophotometer. Glycerol concentration is calculated from a standard curve for each assay, and data are normalized to total cellular protein as determined by a Bradford assay (Bio-Rad Laboratories, Hercules, Calif.).
An increase in triglyceride content is another well-established marker for adipocyte differentiation. The triglyceride accumulation assay measures the synthesis of triglyceride by adipocytes. Triglyceride accumulation was measured using the Infinity™ Triglyceride reagent kit (Sigma-Aldrich, St. Louis, Mo.). Human white preadipocytes (Zen-Bio Inc., Research Triangle Park, N.C.) were grown in preadipocyte media (ZenBio Inc.). One day before transfection, 96-well plates were seeded with 3000 cells/well. Cells were transfected according to standard published procedures with 250 nM oligomeric compound in LIPOFECTIN™ (Invitrogen Corporation, Carlsbad, Calif.) (Monia et al., J. Biol. Chem. 1993 268(19):14514-22). Oligomeric compounds were tested in triplicate on each 96-well plate, and the effects of TNF-α, a positive drug control that inhibits adipocyte differentiation, were also measured in triplicate. Negative and transfectant-only controls may be measured up to six times per plate. After the cells have reached confluence (approximately three days), they were exposed to differentiation media (Zen-Bio, Inc.) containing a PPAR-γ agonist, IBMX, dexamethasone, and insulin for three days. Cells were then fed adipocyte media (Zen-Bio, Inc.), which was replaced at 2 to 3 day intervals. […] Triglyceride accumulation was measured based on the amount of glycerol liberated from triglycerides by the enzyme lipoprotein lipase. Liberated glycerol is phosphorylated by glycerol kinase, and hydrogen peroxide is generated during the oxidation of glycerol-1-phosphate to dihydroxyacetone phosphate by glycerol phosphate oxidase. Horseradish peroxidase (HRP) uses H2O2 to oxidize 4-aminoantipyrine and 3,5 dichloro-2-hydroxybenzene sulfonate to produce a red-colored dye. Dye absorbance, which is proportional to the concentration of glycerol, was measured at 515 nm using an UV spectrophotometer. Glycerol concentration was calculated from a standard curve for each assay, and data were normalized to total cellular protein as determined by a Bradford assay (Bio-Rad Laboratories, Hercules, Calif.). Results are expressed as a percent±standard deviation relative to transfectant-only control.

PPARγ = PPARγ mRNA expression in adipocytes (real-time PCR)
Experimental: as §1, §2

aP2 = aP2 mRNA expression in adipocytes (real-time PCR)
Experimental: as §1, §2

HSL = HSL mRNA expression in adipocytes (real-time PCR)
Experimental: as §1, §2

Row | Substance | GLUT4 mRNA (Glut4) | TG (triglyceride accumulation) (adipocytes) | PPAR gamma mRNA (PPARγ) | aP2 mRNA (aP2) | HSL mRNA (HSL)
1 | 344268 (antisense ACACAAAUUCGGUUCUACAGGG; all 2'-MOE, all phosphorothioate, methylation of C and T or U not given here) [compound 344268] | 22 percentage of untreated control (UTC) | 57 percentage of untreated control (UTC) | 53 percentage of untreated control (UTC) | 46 percentage of untreated control (UTC) | 44 percentage of untreated control (UTC)
2 | 341796 (antisense UCAUACAGCUAGAUAACCAAAGA; all 2'-MOE, all phosphorothioate, methylation of C and T or U not given here) [compound 341796] | 58 percentage of untreated control (UTC) | 59 percentage of untreated control (UTC) | 66 percentage of untreated control (UTC) | 74 percentage of untreated control (UTC) | 67 percentage of untreated control (UTC)
3 | 340343 (antisense ACAGGAGUCUGAGCAUUUGA; all 2'-MOE, all phosphorothioate, methylation of C and T or U not given here) [compound 340343] | 33 percentage of untreated control (UTC) | 35 percentage of untreated control (UTC) | 59 percentage of untreated control (UTC) | 60 percentage of untreated control (UTC) | 46 percentage of untreated control (UTC)
4 | 328096 (antisense e[5mC]*e[5mC]*eT*e[5mC]*eT*e[5mC]*eA*eA*eA*eG*eA*eT*eT*eT*e[5mC]*e[5mC]*eT*eG*eT*e[5mC]*eA) [compound 328096] | 79 percentage of untreated control (UTC) | 74 percentage of untreated control (UTC) | 89 percentage of untreated control (UTC) | 71 percentage of untreated control (UTC) | 76 percentage of untreated control (UTC)
5 | 328091 (antisense eG*e[5mC]*eT*eG*e[5mC]*e[5mC]*eG*eT*eA*eT*eA*eT*eG*eT*eG*eA*eT*eG*eT*e[5mC]*eA) [compound 328091] | 26 percentage of untreated control (UTC) | 48 percentage of untreated control (UTC) | 85 percentage of untreated control (UTC) | 46 percentage of untreated control (UTC) | 40 percentage of untreated control (UTC)
6 | 327972 (antisense eA*e[5mC]*eT*e[5mC]*eA*e[5mC]*e[5mC]*eG*eA*e[5mC]*eA*eG*eG*eT*eT*eG*eA*eA*eT*eG*eT*eT) [compound 327972] | 75 percentage of untreated control (UTC) | 67 percentage of untreated control (UTC) | 85 percentage of untreated control (UTC) | 70 percentage of untreated control (UTC) | 70 percentage of untreated control (UTC)
7 | 346921 (AACAACCAGCUAAGACACUGCCA; all 2'-MOE, all phosphorothioate, methylation of C and T or U not given here) [compound 346921] | 51 percentage of untreated control (UTC) | 52 percentage of untreated control (UTC) | 62 percentage of untreated control (UTC) | 69 percentage of untreated control (UTC) | 49 percentage of untreated control (UTC)
